According to patent publication US12564609B2, “Hematopoietic stem cell engraftment with a combination of agents” (The Board of Trustees of the Leland Stanford Junior …, priority 2020, dated 2026):

System: human Lin−CD34+CD38− cells
Assay: In vitro HSC culture, cell counting and live/dead viability assay (human)
Assay type: cell-based
Method: A. Schematic of treatment protocol. C57BL/6 mice were injected with three different doses of AZA (1.25, 2.5 and 5 mg/kg/d) for 3 days. 24 h after last AZA injection BM was analyzed for HSC-depletion and Ki67 intracellular protein expression. B. Overlay histogram of Ki67 intracellular protein expression in LT-HSC (gated from live, Lin^−Sca1^+c-Kit^+CD150^+CD48^− cells) in mice treated with AZA 1.25 mg/kg, 2.5 mg/kg and 5 mg/kg/d for 3 consecutive days. C. Mean fluorescence intensity (MFI) of Ki67 intracellular protein expression in LT-HSC, ST-HSC, MPP2, MPP3/4 and myeloid progenitors (MP). Data were pooled from 2 independent experiments and represent mean±SD (n=7). Statistics were calculated Mann-Whitney test (*P<0.05; **P<0.01; ***P<0.001). […] After 48 h % live/dead cells was assessed by using EarlyTox Live/Dead Assay Kit. E. Proliferation curves of FACS-sorted mouse Lin^−Sca1^+c-Kit^+CD48^− in the presence of indicated concentrations of AZA (left) and cell viability as assessed by % of Calcein AM positive cells after 48 h of cell culture (right). […] Statistics were calculated with Mann-Whitney test (*P<0.05; **P<0.01; ***P<0.001). F. Proliferation curves of FACS-sorted human Lin^−CD34^+CD38^− cells in the presence of indicated concentrations of AZA (left) and cell viability as assessed by % of Calcein AM positive cells after 48 h of cell culture (right). […]

Question: With Nc1ncn([C@@H]2O[C@H](CO)[C@@H](O)[C@H]2O)c(=O)n1 [AZA, 5-Azacytidine] as the molecule, how does the “number of cells in culture” value (AZA 0.1, 0.5 and 1 μg/ml at baseline and 24 h, 48 h culture with SCF and TPO) read?
Answer: reduced the number of cells in a dose dependent manner

Question: What about the “cell viability by Calcein AM” value (AZA concentrations 0.1 μg/ml, 48 h) of the same molecule?
Answer: significant decrease in cell viability
